The pIC50 is the negative decadic logarithm of the IC50, by convention in mol/L.

Series [1] is described as follows: Simulated Intestinal Fluid (SIF) Stability Assay. It counts as in vitro ADME, porcine. The note with it: pig, simulated intestinal fluid (SIF) with 1% porcine pancreatin. In a few lines:
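Peptides (22 μM final) incubated at 37 °C in FASSIF (pH 6.5) with 1% porcine pancreatin; aliquots quenched at various times and analyzed by LC-MS/MS against internal standard. Half-life from first-order exponential decay fit of percent remaining.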

In the next series the target is α4β7 (Homo sapiens, UniProt P13612+P26010). The series is described as follows: α4β7-MAdCAM Cell Adhesion Assay (RPMI 8866 human cells). Type of series: cell-based. Further details: host or cells: RPMI 8866 human B lymphoblastoid cells. Summed up:
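Washed RPMI 8866 cells (200,000/well) in DMEM with 0.1% BSA, 10 mM HEPES pH 7, 1 mM MnCl2 adhered to rh MAdCAM-1/Fc-coated wells with serially diluted peptides, 30-45 min at 37 °C. After three washes, bound cells quantified by MTT, A570, cell-free background subtracted for dose response.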

Another series has as its target T1, α4β1 (Homo sapiens, UniProt P05556+P13612, DEL729-798).
T1 construct: purchased R&D Systems 5668-A4
The experiment in a line: α4β1-VCAM Competition ELISA. It counts as binding. Summed up: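 Recombinant α4β1 (60 nM final) competed with serially diluted peptides (top final 100 μM) for VCAM-1 Fc coated at 400 ng/well, in Tris pH 7.6 with 1 mM MnCl2 or MgCl2, for 2 h at 37 °C. Bound integrin was detected with anti-CD49d 9F10 plus HRP anti-mouse IgG, using TMB read at 450 nm.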
(In general: ELISA stands for enzyme-linked immunosorbent assay.)

Setting [2] is: pH 6.5, Table 4-C, t1/2, > means assay stopped at that time, read-out: SIF (porcine) Min.
The mark [3] stands for this setting: Table 4-B, read-out: Cell Adhesion α4β7 IC50.
Where [4] appears, read: Table 4-B, read-out: ELISA_α4β1 IC50.

pIC50: −log10 of the molar value. Like-named read-outs stand apart in the source and are kept apart here. Numbered stars: 1 amine (or outer) side, 2 acyl side, 3 side chain; on linkers, the order of the positions; unused ones are H or OH. Bridge positions count the residues as written; N and C are the ends. Square brackets hold non-standard residues; d marks the D form. Peptide text beside a SMILES is read from it. I, II: the chains in the order shown. Phe(4-tBu) = CC(C)(C)c1ccc(C[C@H](N)C(=O)O)cc1; Diglycolyl = O=C(COCC(=O)[*:2])[*:1]; NMeR = CN[C@@H](CCCNC(=N)N)C(=O)O; β3hE = N[C@@H](CCC(=O)O)CC(=O)O; Pen = CC(C)(S)[C@H](N)C(=O)O

T1 sequence (P13612 34-977 limits assumed, stated change not applied): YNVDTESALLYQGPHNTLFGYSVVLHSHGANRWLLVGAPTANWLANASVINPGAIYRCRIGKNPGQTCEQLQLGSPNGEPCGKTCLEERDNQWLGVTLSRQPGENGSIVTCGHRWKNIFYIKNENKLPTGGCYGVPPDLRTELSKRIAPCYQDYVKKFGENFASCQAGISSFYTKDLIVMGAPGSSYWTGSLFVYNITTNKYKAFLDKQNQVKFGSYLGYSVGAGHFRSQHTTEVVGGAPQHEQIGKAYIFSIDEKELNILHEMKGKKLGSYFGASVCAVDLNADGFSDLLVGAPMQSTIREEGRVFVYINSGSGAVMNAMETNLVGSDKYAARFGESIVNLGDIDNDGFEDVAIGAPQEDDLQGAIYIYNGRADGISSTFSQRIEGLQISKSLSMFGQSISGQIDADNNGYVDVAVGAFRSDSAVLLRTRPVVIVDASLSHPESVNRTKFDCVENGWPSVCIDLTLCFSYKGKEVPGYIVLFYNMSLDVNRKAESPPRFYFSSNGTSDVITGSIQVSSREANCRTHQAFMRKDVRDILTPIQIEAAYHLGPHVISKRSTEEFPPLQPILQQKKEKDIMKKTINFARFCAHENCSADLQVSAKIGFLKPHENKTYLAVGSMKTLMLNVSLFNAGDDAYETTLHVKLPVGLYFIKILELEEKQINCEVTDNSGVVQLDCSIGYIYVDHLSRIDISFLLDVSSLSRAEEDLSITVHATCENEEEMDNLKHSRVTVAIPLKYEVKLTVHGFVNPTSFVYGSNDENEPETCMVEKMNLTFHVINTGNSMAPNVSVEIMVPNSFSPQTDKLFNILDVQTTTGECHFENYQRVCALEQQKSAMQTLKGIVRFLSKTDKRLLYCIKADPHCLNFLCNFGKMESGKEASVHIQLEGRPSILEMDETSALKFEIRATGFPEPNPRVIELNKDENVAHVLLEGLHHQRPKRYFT
T1 sequence (P05556 21-728 limits assumed, stated change not applied): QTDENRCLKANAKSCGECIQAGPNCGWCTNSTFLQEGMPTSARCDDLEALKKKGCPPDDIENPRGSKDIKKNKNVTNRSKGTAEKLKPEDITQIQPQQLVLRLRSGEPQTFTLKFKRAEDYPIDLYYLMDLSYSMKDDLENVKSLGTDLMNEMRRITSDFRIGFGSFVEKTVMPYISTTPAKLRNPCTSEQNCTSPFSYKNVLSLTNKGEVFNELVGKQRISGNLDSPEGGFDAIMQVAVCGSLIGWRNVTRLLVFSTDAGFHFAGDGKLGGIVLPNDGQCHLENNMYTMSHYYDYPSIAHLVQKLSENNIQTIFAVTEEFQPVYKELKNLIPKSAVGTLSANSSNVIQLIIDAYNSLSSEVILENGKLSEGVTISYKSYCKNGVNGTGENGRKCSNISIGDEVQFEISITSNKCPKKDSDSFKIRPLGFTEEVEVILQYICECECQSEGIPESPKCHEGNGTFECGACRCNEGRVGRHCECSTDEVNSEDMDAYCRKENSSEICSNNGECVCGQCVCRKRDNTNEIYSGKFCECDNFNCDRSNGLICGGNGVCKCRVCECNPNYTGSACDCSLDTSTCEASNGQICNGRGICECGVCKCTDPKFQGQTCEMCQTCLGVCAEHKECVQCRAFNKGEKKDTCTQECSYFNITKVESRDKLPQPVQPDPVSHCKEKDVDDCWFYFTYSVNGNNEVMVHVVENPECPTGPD
Chain of α4β7 (P13612 34-1032): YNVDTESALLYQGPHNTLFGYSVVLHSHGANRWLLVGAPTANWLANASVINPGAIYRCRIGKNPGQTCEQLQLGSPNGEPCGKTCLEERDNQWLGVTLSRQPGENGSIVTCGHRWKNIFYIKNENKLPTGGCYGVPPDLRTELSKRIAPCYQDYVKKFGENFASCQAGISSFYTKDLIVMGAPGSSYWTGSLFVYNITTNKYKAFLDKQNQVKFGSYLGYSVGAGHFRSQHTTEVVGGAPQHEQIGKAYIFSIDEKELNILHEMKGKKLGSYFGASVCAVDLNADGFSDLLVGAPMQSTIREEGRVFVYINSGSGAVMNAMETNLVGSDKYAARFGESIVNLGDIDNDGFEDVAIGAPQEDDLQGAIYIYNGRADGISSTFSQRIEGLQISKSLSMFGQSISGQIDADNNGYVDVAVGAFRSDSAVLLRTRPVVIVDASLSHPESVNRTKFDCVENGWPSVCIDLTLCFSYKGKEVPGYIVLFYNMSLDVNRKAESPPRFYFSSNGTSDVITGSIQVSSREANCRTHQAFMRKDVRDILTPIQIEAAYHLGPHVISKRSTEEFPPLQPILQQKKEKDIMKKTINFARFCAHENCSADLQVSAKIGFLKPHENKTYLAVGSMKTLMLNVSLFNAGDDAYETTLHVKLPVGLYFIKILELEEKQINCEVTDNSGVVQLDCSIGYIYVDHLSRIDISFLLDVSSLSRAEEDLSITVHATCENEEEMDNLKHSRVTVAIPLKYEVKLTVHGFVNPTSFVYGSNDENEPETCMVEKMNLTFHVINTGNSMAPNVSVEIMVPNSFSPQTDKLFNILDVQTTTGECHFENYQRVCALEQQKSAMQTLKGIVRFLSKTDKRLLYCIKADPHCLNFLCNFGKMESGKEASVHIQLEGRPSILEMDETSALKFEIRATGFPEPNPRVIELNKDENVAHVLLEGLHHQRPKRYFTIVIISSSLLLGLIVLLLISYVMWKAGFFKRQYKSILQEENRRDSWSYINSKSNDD
Chain of α4β7 (P26010 20-798): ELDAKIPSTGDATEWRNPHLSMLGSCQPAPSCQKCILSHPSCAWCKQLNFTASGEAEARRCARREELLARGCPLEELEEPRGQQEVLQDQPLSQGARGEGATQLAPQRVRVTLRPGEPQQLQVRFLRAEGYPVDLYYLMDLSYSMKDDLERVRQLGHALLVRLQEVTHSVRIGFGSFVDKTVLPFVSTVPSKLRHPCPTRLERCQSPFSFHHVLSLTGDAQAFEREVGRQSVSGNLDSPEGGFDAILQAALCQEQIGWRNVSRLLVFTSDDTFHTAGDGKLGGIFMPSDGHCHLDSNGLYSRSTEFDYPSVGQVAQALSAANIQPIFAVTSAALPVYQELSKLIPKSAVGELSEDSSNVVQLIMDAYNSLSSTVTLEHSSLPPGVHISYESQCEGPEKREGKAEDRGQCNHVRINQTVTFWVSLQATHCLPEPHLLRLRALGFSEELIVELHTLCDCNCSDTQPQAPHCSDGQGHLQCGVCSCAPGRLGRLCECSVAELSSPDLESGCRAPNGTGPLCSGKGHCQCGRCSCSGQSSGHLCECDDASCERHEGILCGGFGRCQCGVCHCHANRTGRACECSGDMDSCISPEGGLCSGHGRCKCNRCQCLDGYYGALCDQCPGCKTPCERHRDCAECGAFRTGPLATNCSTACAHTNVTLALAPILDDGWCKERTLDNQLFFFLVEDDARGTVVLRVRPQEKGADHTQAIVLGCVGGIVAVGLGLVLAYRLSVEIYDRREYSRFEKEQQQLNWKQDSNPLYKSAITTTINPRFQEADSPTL

For `CC(=O)N[C@@H]1C(=O)N(C)[C@@H](CCCNC(=N)N)C(=O)N[C@@H](CO)C(=O)N[C@@H](CC(=O)O)C(=O)N[C@@H]([C@@H](C)O)C(=O)N[C@@H](CC(C)C)C(=O)N[C@H](C(=O)N[C@@H](Cc2ccc(C(C)(C)C)cc2)C(=O)N[C@@H](CCC(=O)O)CC(=O)N[C@H](CCCCN)C(N)=O)C(C)(C)SSC1(C)C` [compound 153] (Ac-[Pen][NMeR]SDTL[Pen][Phe(4-tBu)][β3hE][dK]-NH2; disulfide 1-7), in series [1] (pH 6.5, Table 3-B, alone or in parentheses after >360, read-out: Stabilty SIF t1/2, in hr (converted)), the half-life at 22 μM is 13.6 h. The pIC50 is 7.60 to 8.00 on α4β7 (Table 3-B, Potency (α4β7), range classes, read-out: α4β7 cell (Hu) IC50) and 5.00 to 6.00 at α4β1 (Table 3-B, Selectivity (α4β1), range classes, read-out: α4β1 ELISA IC50).
With `CC(=O)N[C@H]1CSSC[C@@H](C(=O)NCC(=O)N[C@@H](CCC(=O)O)C(N)=O)NC(=O)[C@H](CC(C)C)NC(=O)[C@H]([C@@H](C)O)NC(=O)[C@H](CC(=O)O)NC(=O)[C@H](CO)NC(=O)[C@H](CCCNC(=N)N)NC1=O` [compound 194, Ac-C-R-S-D-T-L-C-G-E-NH2] (Ac-CRSDTLCGE-NH2; disulfide 1-7), the half-life at 22 μM in series [1] (setting [2]) was less than 0.0167 h. Further, the figures for the pIC50 at α4β7 (setting [3]) and on α4β1 (setting [4]) were 6.23 and 5.69, respectively.
Taken in the same sequence, the figures for `CC(=O)N[C@H]1CSSC[C@@H](C(N)=O)NC(=O)[C@H](CC(C)C)NC(=O)[C@H]([C@@H](C)O)NC(=O)[C@H](CC(=O)O)NC(=O)[C@H](CO)NC(=O)[C@H](CCCNC(=N)N)NC1=O` [compound 195, Ac-C-R-S-D-T-L-C-NH2] (Ac-CRSDTLC-NH2; disulfide 1-7) were less than 0.0167 h, 5.91 and 5.54.
With `CC(=O)N[C@H]1CSSC[C@@H](C(=O)NCC(=O)N[C@@H](CCC(=O)O)C(=O)N[C@@H](CCCCN)C(N)=O)NC(=O)[C@H](CC(C)C)NC(=O)[C@H]([C@@H](C)O)NC(=O)[C@H](CC(=O)O)NC(=O)[C@H](CO)NC(=O)[C@H](CCCNC(=N)N)NC1=O` [compound 196, Ac-C-R-S-D-T-L-C-G-E-K-NH2] (Ac-CRSDTLCGEK-NH2; disulfide 1-7), the half-life at 22 μM in series [1] (setting [2]) was less than 0.0667 h. In addition, the results for the pIC50 at α4β7 (setting [3]) and on α4β1 (setting [4]) were 5.18 and 5.32, respectively.
Taken in the same sequence, the figures for `CC(=O)N[C@H]1CSSC[C@@H](C(=O)NCC(=O)N[C@@H](CCC(=O)O)C(=O)N[C@@H](CCCCN)C(=O)O)NC(=O)[C@H](CC(C)C)NC(=O)[C@H]([C@@H](C)O)NC(=O)[C@H](CC(=O)O)NC(=O)[C@H](CO)NC(=O)[C@H](CCCNC(=N)N)N(C)C1=O` [compound 199, Ac-C-N-Me-R-S-D-T-L-C-G-E-K-OH] (Ac-C[NMeR]SDTLCGEK-OH; disulfide 1-7) were 0.45 h, 5.33 and less than 4.00.
On to `CC(=O)N[C@H]1CSSC[C@@H](C(=O)NCC(=O)N[C@@H](CCC(=O)O)C(=O)N[C@@H](CCCCNC(=O)COCC(=O)NCCCC[C@H](NC(=O)[C@H](CCC(=O)O)NC(=O)CNC(=O)[C@@H]2CSSC[C@H](NC(C)=O)C(=O)N(C)[C@@H](CCCNC(=N)N)C(=O)N[C@@H](CO)C(=O)N[C@@H](CC(=O)O)C(=O)N[C@@H]([C@@H](C)O)C(=O)N[C@@H](CC(C)C)C(=O)N2)C(=O)O)C(=O)O)NC(=O)[C@H](CC(C)C)NC(=O)[C@H]([C@@H](C)O)NC(=O)[C@H](CC(=O)O)NC(=O)[C@H](CO)NC(=O)[C@H](CCCNC(=N)N)N(C)C1=O` [compound 201, (Ac-C-N-Me-R-S-D-T-L-C-G-E-K-OH)2-DIG] (I: Ac-C[NMeR]SDTLCGEK-OH / II: Ac-C[NMeR]SDTLCGEK-OH; disulfide I:1-I:7, II:1-II:7 (inferred); linker I:10-II:10 via Diglycolyl (inferred)), for which, in series [1] (setting [2]), the half-life at 22 μM is 0.3 h. Further, the pIC50 is 7.55 at α4β7 (setting [3]) and 5.91 on α4β1 (setting [4]).
As for `CC(=O)N[C@H]1CSSC(C)(C)[C@@H](C(=O)N[C@H](CCCCN)C(N)=O)NC(=O)[C@H](CC(C)C)NC(=O)[C@H]([C@@H](C)O)NC(=O)[C@H](CC(=O)O)NC(=O)[C@H](CO)NC(=O)[C@H](CCCNC(=N)N)N(C)C1=O` [compound 202, Ac-C-N-Me-R-S-D-T-L-Pen-k-NH2] (Ac-C[NMeR]SDTL[Pen][dK]-NH2; disulfide 1-7), the half-life at 22 μM in series [1] (setting [2]) is more than 6 h. Besides, the pIC50 at α4β7 (setting [3]) is 4.96; at α4β1 (setting [4]), 5.79.
Taken in the same sequence, the figures for `CC(=O)N[C@H]1CSSC(C)(C)[C@@H](C(=O)N[C@@H](Cc2c[nH]c3ccccc23)C(=O)N[C@H](CCCCNC(=O)COCC(=O)NCCCC[C@@H](NC(=O)[C@H](Cc2c[nH]c3ccccc23)NC(=O)[C@H]2NC(=O)[C@H](CC(C)C)NC(=O)[C@H]([C@@H](C)O)NC(=O)[C@H](CC(=O)O)NC(=O)[C@H](CO)NC(=O)[C@H](CCCNC(=N)N)N(C)C(=O)[C@@H](NC(C)=O)CSSC2(C)C)C(N)=O)C(N)=O)NC(=O)[C@H](CC(C)C)NC(=O)[C@H]([C@@H](C)O)NC(=O)[C@H](CC(=O)O)NC(=O)[C@H](CO)NC(=O)[C@H](CCCNC(=N)N)N(C)C1=O` [compound 204, (Ac-C-N-Me-R-S-D-T-L-Pen-W-k-NH2)2-DIG] (I: Ac-C[NMeR]SDTL[Pen]W[dK]-NH2 / II: Ac-C[NMeR]SDTL[Pen]W[dK]-NH2; disulfide I:1-I:7, II:1-II:7 (inferred); linker I:9-II:9 via Diglycolyl (inferred)) were more than 6 h, 7.66 and 6.33.
In the same order, the values of `CC(=O)N[C@H]1CSSC(C)(C)[C@@H](C(=O)N[C@@H](CCC(=O)O)C(=O)N[C@H](CCCCNC(=O)COCC(=O)NCCCC[C@@H](NC(=O)[C@H](CCC(=O)O)NC(=O)[C@H]2NC(=O)[C@H](CC(C)C)NC(=O)[C@H]([C@@H](C)O)NC(=O)[C@H](CC(=O)O)NC(=O)[C@H](CO)NC(=O)[C@H](CCCNC(=N)N)N(C)C(=O)[C@@H](NC(C)=O)CSSC2(C)C)C(N)=O)C(N)=O)NC(=O)[C@H](CC(C)C)NC(=O)[C@H]([C@@H](C)O)NC(=O)[C@H](CC(=O)O)NC(=O)[C@H](CO)NC(=O)[C@H](CCCNC(=N)N)N(C)C1=O` [compound 205, (Ac-C-N-Me-R-S-D-T-L-Pen-E-k-NH2)2-DIG] (I: Ac-C[NMeR]SDTL[Pen]E[dK]-NH2 / II: Ac-C[NMeR]SDTL[Pen]E[dK]-NH2; disulfide I:1-I:7, II:1-II:7 (inferred); linker I:9-II:9 via Diglycolyl (inferred)) are more than 6 h, 7.59 and 6.35.
In the same order, the values of `CC(=O)N[C@@H]1C(=O)N(C)[C@@H](CCCNC(=N)N)C(=O)N[C@@H](CO)C(=O)N[C@@H](CC(=O)O)C(=O)N[C@@H]([C@@H](C)O)C(=O)N[C@@H](CC(C)C)C(=O)N[C@H](C(=O)N[C@@H](Cc2c[nH]c3ccccc23)C(=O)N[C@H](CCCCNC(=O)COCC(=O)NCCCC[C@@H](NC(=O)[C@H](Cc2c[nH]c3ccccc23)NC(=O)[C@H]2NC(=O)[C@H](CC(C)C)NC(=O)[C@H]([C@@H](C)O)NC(=O)[C@H](CC(=O)O)NC(=O)[C@H](CO)NC(=O)[C@H](CCCNC(=N)N)N(C)C(=O)[C@@H](NC(C)=O)C(C)(C)SSC2(C)C)C(N)=O)C(N)=O)C(C)(C)SSC1(C)C` [compound 209, (Ac-Pen-N-Me-R-S-D-T-L-Pen-W-k-NH2)2-DIG] (I: Ac-[Pen][NMeR]SDTL[Pen]W[dK]-NH2 / II: Ac-[Pen][NMeR]SDTL[Pen]W[dK]-NH2; disulfide I:1-I:7, II:1-II:7 (inferred); linker I:9-II:9 via Diglycolyl (inferred)) are more than 3 h, 7.62 and 6.43.
Turning to `CC(=O)N[C@@H]1C(=O)N(C)[C@@H](CCCNC(=N)N)C(=O)N[C@@H](CO)C(=O)N[C@@H](CC(=O)O)C(=O)N[C@@H]([C@@H](C)O)C(=O)N[C@@H](CC(C)C)C(=O)N[C@H](C(=O)N[C@@H](Cc2c[nH]c3ccccc23)C(=O)N[C@H](CCC(=O)O)C(=O)N[C@H](CCCCNC(=O)COCC(=O)NCCCC[C@@H](NC(=O)[C@@H](CCC(=O)O)NC(=O)[C@H](Cc2c[nH]c3ccccc23)NC(=O)[C@H]2NC(=O)[C@H](CC(C)C)NC(=O)[C@H]([C@@H](C)O)NC(=O)[C@H](CC(=O)O)NC(=O)[C@H](CO)NC(=O)[C@H](CCCNC(=N)N)N(C)C(=O)[C@@H](NC(C)=O)C(C)(C)SSC2(C)C)C(N)=O)C(N)=O)C(C)(C)SSC1(C)C` [compound 211, (Ac-Pen-N-Me-R-S-D-T-L-Pen-W-e-k-NH2)2-DIG] (I: Ac-[Pen][NMeR]SDTL[Pen]W[dE][dK]-NH2 / II: Ac-[Pen][NMeR]SDTL[Pen]W[dE][dK]-NH2; disulfide I:1-I:7, II:1-II:7 (inferred); linker I:10-II:10 via Diglycolyl (inferred)), in series [1] (setting [2]), the half-life at 22 μM is more than 5 h. Further, the pIC50 at α4β7 (setting [3]) was 7.66; on α4β1 (setting [4]) it was 6.52.

Source of the values: US9809623B2, “α4β7 peptide monomer and dimer antagonists” (Protagonist Therapeutics, Inc., priority 2014, dated 2017).
